In patent US20230233567A1, “BELVARAFENIB FOR USE IN CANCER TREATMENT” (Hanmi Pharm. Co., Ltd., priority 2020, published 2023):
Read-outs that look alike come from different tables or passages of the source.

Columns and labels:
LS513 (KRAS^G12D) = assay: In vitro cell growth inhibition, CRC; assay type: cell-based; conditions: Homo sapiens, LS-513
[1] = system: MEK and ERK phosphorylation in HCT116 (KRAS^G13D) cells; assay: Inhibition of MEK and ERK phosphorylation, KRAS mutant; assay type: cell-based; conditions: Homo sapiens, HCT-116, CRC HCT116, KRAS G13D, 2 hr treatment
[2] = system: MEK and ERK phosphorylation in Calu-6 (KRAS^Q61K) cells; assay: as above; assay type: cell-based; conditions: Homo sapiens, NSCLC Cau-6 (Calu-6), 2 hr treatment
P-MEK / total MEK = assay: % P/T-MEK (ratio of P-MEK and total MEK)
Experimental: Belvarafenib was evaluated to measure the inhibition capability of RAF monomers and dimers. In Table 12: “A375” refers to the A375 a human melanoma cell line bearing a BRAF^V600E mutation; “IPC298” refers to the IPC298 cutaneous melanoma cell line bearing an NRAS^Q61L mutation; “A549” refers to the A549 lung adenocarcinoma cell line baring a KRAS mutation; “CSFR1” refers to the CSFR1 gene; “DDR1” refers to discoidin domain receptors DDR1; and “DDR2” refers to discoidin domain receptors DDR2. In Table 13: “% P/T−MEK” refers to the ratio of P-MEK and total MEK; “Conc 1” refers to an inhibitor first (lowest) concentration; “Conc 2” refers to an inhibitor second (intermediate) concentration; and “Conc 3” refers to an inhibitor third (highest) concentration. In Table 13, LXH254 refers to a drug having CAS No.: 1800398-38-2 and the following structure: […]

Calu-1 (KRAS^G12C) = assay: In vitro cell growth inhibition, NSCLC; assay type: cell-based; conditions: Homo sapiens
SK-MEL-2 (NRAS^Q61R) = assay: In vitro cell growth inhibition, melanoma; assay type: cell-based; conditions: Homo sapiens, mean ± SD, n = 3
Experimental: (§1) A G150 of 69, 57, 53, and 24 nM were determined for SK-MEL-28, A375, SK-MEL-2, and SK-MEL-30 cell lines, respectively.

SK-MEL-30 (NRAS^Q61K) = assay: In vitro cell growth inhibition, melanoma; assay type: cell-based; conditions: Homo sapiens, mean ± SD, n = 3
Experimental: as §1

A375 (BRAF^V600E) = assay: In vitro cell growth inhibition, melanoma; assay type: cell-based; conditions: Homo sapiens, A-375, mean ± SD, n = 3
HCT116 (KRAS^G13D) = assay: In vitro cell growth inhibition, CRC; assay type: cell-based; conditions: Homo sapiens, HCT-116
LS174T (KRAS^G12D) = assay: In vitro cell growth inhibition, CRC; assay type: cell-based; conditions: Homo sapiens
SK-MEL-28 (BRAF^V600E) = assay: In vitro cell growth inhibition, melanoma; assay type: cell-based; conditions: Homo sapiens, mean ± SD, n = 3
[3] = system: MEK and ERK phosphorylation in Lovo (KRAS^G13D) cells; assay: Inhibition of MEK and ERK phosphorylation, KRAS mutant; assay type: cell-based; conditions: Homo sapiens, CRC Lovo, KRAS G13D, 2 hr treatment
Lovo (KRAS^G13D) = assay: In vitro cell growth inhibition, CRC; assay type: cell-based; conditions: Homo sapiens
Calu-6 (KRAS^Q61K) = assay: In vitro cell growth inhibition, NSCLC; assay type: cell-based; conditions: Homo sapiens
[4] = system: MEK and ERK phosphorylation in SK-MEL-28 (BRAF^V600E) cells; assay: Inhibition of MEK and ERK phosphorylation; assay type: cell-based; conditions: Homo sapiens
[5] = system: MEK and ERK phosphorylation in A375 (BRAF^V600E) cells; assay: Inhibition of MEK and ERK phosphorylation; assay type: cell-based; conditions: Homo sapiens
B-CPAP (BRAF^V600E) = assay: In vitro cell growth inhibition, thyroid cancer; assay type: cell-based; conditions: Homo sapiens, BCPAP
SNU80 (BRAF^G468R) = assay: In vitro cell growth inhibition, thyroid cancer; assay type: cell-based
[6] = system: MEK and ERK phosphorylation in SK-MEL-30 (NRAS^Q61K) cells; assay: Inhibition of MEK and ERK phosphorylation; assay type: cell-based; conditions: Homo sapiens
HT-29 (BRAF^V600E) = assay: In vitro cell growth inhibition, CRC; assay type: cell-based; conditions: Homo sapiens
8505C (BRAF^V600E) = assay: In vitro cell growth inhibition, thyroid cancer; assay type: cell-based; conditions: Homo sapiens
ARO (BRAF^V600E) = assay: In vitro cell growth inhibition, thyroid cancer; assay type: cell-based
Colo-205 (BRAF^V600E) = assay: In vitro cell growth inhibition, CRC; assay type: cell-based; conditions: Homo sapiens
DDR1 = DDR1 (Homo sapiens, UniProt Q08345); assay: In vitro kinase assay; assay type: biochemical; conditions: confirmatory assay
Experimental: (§2) The in vitro kinase inhibitory selectivity and activity of belvarafenib were evaluated in a kinase panel assay against 189 kinases and a subsequent confirmatory assay against selected kinases by using Z′-Lyte® biochemical assay, Lantha® binding assay and Adapter® assay.

CSF1R (FMS) = CSF1R (FMS) (Homo sapiens, UniProt P07333); assay: In vitro kinase assay; assay type: biochemical; conditions: confirmatory assay
Experimental: as §2

DDR2 = molecular target: T1, DDR2 (Homo sapiens, UniProt Q16832); assay: In vitro kinase assay; assay type: biochemical; conditions: confirmatory assay
T1 sequence (Q16832 22-855): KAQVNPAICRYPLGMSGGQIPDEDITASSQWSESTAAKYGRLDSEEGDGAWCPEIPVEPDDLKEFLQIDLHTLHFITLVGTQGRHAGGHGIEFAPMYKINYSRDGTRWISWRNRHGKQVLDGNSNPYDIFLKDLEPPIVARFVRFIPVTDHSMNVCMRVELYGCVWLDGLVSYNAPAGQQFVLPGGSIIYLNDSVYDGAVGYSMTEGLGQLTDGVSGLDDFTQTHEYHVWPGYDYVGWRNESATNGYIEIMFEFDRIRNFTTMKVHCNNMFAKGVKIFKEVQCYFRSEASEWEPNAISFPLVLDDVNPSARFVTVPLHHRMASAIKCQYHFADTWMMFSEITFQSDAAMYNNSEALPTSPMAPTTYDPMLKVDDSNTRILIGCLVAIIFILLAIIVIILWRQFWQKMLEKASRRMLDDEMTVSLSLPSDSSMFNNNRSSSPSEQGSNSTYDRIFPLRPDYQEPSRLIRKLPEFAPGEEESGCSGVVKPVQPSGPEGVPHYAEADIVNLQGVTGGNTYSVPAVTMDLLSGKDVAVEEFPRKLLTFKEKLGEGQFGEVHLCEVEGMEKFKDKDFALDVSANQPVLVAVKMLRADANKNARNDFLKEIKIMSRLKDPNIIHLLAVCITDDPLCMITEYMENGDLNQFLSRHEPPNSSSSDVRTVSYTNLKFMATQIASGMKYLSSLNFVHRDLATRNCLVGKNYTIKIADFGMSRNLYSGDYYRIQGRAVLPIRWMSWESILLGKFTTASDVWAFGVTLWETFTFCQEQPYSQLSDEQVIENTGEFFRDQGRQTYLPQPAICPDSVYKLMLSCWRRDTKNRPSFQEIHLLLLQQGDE
Experimental: as §2

CAL-62 (KRAS^G12R) = assay: In vitro cell growth inhibition, thyroid cancer; assay type: cell-based; conditions: Homo sapiens
NPA (BRAF^V600E) = assay: In vitro cell growth inhibition, thyroid cancer; assay type: cell-based
SNU790 (BRAF^V600E) = assay: In vitro cell growth inhibition, thyroid cancer; assay type: cell-based; conditions: SNU7890, BRAF^V600E
[7] = system: MEK and ERK phosphorylation in SK-MEL-2 (NRAS^Q61R) cells; assay: Inhibition of MEK and ERK phosphorylation; assay type: cell-based; conditions: Homo sapiens
FRO (BRAF^V600E) = assay: In vitro cell growth inhibition, thyroid cancer; assay type: cell-based
NRAS-mutant melanoma = NRAS-mutant melanoma patients, NEMO study; cited from earlier work
[8] = Conc 1, first (lowest) concentration
[9] = Conc 2, second (intermediate) concentration
[10] = Conc 3, third (highest) concentration

Chain of CSF1R (FMS) (P07333 20-972): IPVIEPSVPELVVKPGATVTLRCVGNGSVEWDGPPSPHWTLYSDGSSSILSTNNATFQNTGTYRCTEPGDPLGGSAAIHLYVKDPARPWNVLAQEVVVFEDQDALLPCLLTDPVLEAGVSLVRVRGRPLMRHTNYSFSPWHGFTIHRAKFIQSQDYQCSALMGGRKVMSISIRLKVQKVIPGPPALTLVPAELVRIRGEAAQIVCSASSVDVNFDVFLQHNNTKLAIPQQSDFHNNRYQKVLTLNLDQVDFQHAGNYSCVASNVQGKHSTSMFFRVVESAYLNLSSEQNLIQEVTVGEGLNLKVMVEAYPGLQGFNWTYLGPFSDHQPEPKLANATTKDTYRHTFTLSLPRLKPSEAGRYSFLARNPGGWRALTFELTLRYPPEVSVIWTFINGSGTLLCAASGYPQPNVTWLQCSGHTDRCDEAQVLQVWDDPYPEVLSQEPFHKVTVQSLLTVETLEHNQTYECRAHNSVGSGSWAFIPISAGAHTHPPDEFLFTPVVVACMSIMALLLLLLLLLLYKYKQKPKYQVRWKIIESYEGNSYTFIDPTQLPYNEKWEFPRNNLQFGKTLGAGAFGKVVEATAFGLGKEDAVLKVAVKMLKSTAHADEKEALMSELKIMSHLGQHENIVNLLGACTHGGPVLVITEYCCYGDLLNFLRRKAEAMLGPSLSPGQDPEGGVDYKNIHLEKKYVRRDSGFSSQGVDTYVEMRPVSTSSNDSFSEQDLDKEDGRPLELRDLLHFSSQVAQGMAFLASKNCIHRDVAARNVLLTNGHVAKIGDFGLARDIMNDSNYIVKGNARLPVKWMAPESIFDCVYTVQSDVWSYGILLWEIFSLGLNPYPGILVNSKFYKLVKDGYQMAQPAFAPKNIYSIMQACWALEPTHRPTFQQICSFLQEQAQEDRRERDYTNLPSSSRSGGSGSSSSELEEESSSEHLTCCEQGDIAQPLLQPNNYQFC
Chain of DDR1 (Q08345 19-913): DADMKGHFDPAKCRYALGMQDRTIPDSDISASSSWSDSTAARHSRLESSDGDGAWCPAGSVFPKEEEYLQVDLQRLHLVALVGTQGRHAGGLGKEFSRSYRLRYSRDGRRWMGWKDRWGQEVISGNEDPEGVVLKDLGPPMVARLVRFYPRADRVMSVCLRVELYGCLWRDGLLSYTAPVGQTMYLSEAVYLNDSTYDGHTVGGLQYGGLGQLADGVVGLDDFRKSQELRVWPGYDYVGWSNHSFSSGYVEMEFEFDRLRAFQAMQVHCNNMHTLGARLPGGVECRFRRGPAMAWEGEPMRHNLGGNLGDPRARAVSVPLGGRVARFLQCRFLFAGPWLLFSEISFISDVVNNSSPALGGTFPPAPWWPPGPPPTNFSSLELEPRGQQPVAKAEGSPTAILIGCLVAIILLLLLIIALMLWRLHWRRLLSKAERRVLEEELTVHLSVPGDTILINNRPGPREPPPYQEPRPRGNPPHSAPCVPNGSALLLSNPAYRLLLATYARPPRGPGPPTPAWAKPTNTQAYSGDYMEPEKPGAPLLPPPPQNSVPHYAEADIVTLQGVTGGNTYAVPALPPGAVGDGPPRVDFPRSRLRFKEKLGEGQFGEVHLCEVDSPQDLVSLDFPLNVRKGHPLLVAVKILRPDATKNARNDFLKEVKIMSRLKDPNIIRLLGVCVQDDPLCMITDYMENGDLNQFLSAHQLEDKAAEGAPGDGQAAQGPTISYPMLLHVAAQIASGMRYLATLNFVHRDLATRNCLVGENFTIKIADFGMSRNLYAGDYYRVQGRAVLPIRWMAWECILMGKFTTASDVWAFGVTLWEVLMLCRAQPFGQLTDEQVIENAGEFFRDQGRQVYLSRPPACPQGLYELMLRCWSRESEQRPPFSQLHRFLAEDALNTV

Work on CC(C)(C)c1nc(-c2cccc(NS(=O)(=O)c3c(F)cccc3F)c2F)c(-c2ccnc(N)n2)s1 [Dabrafenib] yielded a GI50 (LS513 (KRAS^G12D)) of 3.06 µM, an IC50 ([1]; read-out: IC50 pERK) greater than 10 µM and an IC50 ([1]; read-out: IC50 pMEK) greater than 10 µM. The IC50 ([2]; read-out: IC50 pERK) was greater than 10 µM, the IC50 ([2]; read-out: IC50 pMEK) was greater than 10 µM and the “% P/T-MEK” value (P-MEK / total MEK; [8]) was 125%. The “% P/T-MEK” value (P-MEK / total MEK; [9]) was 150%, the “% P/T-MEK” value (P-MEK / total MEK; [10]) was 75% and the GI50 (Calu-1 (KRAS^G12C)) was 0.904 µM. For the same compound, the GI50 (SK-MEL-2 (NRAS^Q61R)) was 0.204 µM, the GI50 (SK-MEL-30 (NRAS^Q61K)) was 0.258 µM and the GI50 (A375 (BRAF^V600E)) was less than 0.0001 µM. For the same compound, the GI50 (HCT116 (KRAS^G13D)) was greater than 10 µM, the GI50 (LS174T (KRAS^G12D)) was greater than 10 µM and the GI50 (SK-MEL-28 (BRAF^V600E)) was less than 0.0001 µM. The IC50 ([3]; read-out: IC50 pERK) was greater than 10 µM, the IC50 ([3]; read-out: IC50 pMEK) was greater than 10 µM and the GI50 (Lovo (KRAS^G13D)) was 0.214 µM. It also gave a GI50 (Calu-6 (KRAS^Q61K)) of 0.618 µM.
For Cc1ccc(NC(=O)c2ccnc(C(F)(F)F)c2)cc1-c1cc(OCCO)nc(N2CCOCC2)c1 [LXH254], the “% P/T-MEK” value (P-MEK / total MEK; [8]) was 80%, the “% P/T-MEK” value (P-MEK / total MEK; [9]) was 70% and the “% P/T-MEK” value (P-MEK / total MEK; [10]) was 10%.
Compound CCCS(=O)(=O)Nc1ccc(F)c(C(=O)c2c[nH]c3ncc(-c4ccc(Cl)cc4)cc23)c1F [Vemurafenib, reference compound] has a GI50 (LS513 (KRAS^G12D)) greater than 10 µM, an IC50 ([4]; read-out: IC50 pERK) of 0.028 µM and an IC50 ([4]; read-out: IC50 pMEK) of 0.032 µM. It also gave an IC50 ([1]; read-out: IC50 pERK) greater than 10 µM, an IC50 ([1]; read-out: IC50 pMEK) greater than 10 µM and an IC50 ([5]; A-375, read-out: IC50 pERK) of 0.02 µM. For the same compound, the IC50 ([5]; A-375, read-out: IC50 pMEK) was 0.073 µM, the GI50 (B-CPAP (BRAF^V600E)) was 0.031 µM and the IC50 ([2]; read-out: IC50 pERK) was greater than 10 µM. The IC50 ([2]; read-out: IC50 pMEK) was greater than 10 µM, the GI50 (SNU80 (BRAF^G468R)) was 2.85 µM and the IC50 ([6]; read-out: IC50 pERK) was greater than 10 µM. For the same compound, the IC50 ([6]; read-out: IC50 pMEK) was greater than 10 µM, the GI50 (Calu-1 (KRAS^G12C)) was 7.48 µM and the GI50 (SK-MEL-2 (NRAS^Q61R)) was greater than 10 µM. It also gave a GI50 (SK-MEL-30 (NRAS^Q61K)) greater than 10 µM, a GI50 (HT-29 (BRAF^V600E)) of 0.11 µM and a GI50 (A375 (BRAF^V600E)) of 0.075 ± 0.012 µM. It also gave a GI50 (8505C (BRAF^V600E)) of 3.44 µM, a GI50 (ARO (BRAF^V600E)) of 5.26 µM and a GI50 (Colo-205 (BRAF^V600E)) of 0.065 µM. The IC50 (DDR1) was greater than 10 µM, the IC50 (CSF1R (FMS)) was greater than 10 µM and the IC50 (DDR2) was greater than 10 µM. For the same compound, the GI50 (CAL-62 (KRAS^G12R)) was greater than 10 µM, the GI50 (NPA (BRAF^V600E)) was 0.044 µM and the GI50 (HCT116 (KRAS^G13D)) was greater than 10 µM. The GI50 (LS174T (KRAS^G12D)) was greater than 10 µM, the GI50 (SNU790 (BRAF^V600E)) was 0.19 µM and the GI50 (SK-MEL-28 (BRAF^V600E)) was 0.077 ± 0.017 µM. It also gave an IC50 ([7]; read-out: IC50 pERK) greater than 10 µM, an IC50 ([7]; read-out: IC50 pMEK) greater than 10 µM and a GI50 (FRO (BRAF^V600E)) of 1.76 µM. It also gave an IC50 ([3]; read-out: IC50 pERK) greater than 10 µM, an IC50 ([3]; read-out: IC50 pMEK) greater than 10 µM and a GI50 (Lovo (KRAS^G13D)) of 4.03 µM. The GI50 (Calu-6 (KRAS^Q61K)) was greater than 10 µM.
In the case of Cn1cnc2c(F)c(Nc3ccc(Br)cc3F)c(C(=O)NOCCO)cc21 [binimetinib], the mPFS (NRAS-mutant melanoma) is listed as 2.8 months and the overall response rate (NRAS-mutant melanoma) is listed as 15%.
